Test results: ChEMBL document CHEMBL1201862, “PubChem BioAssay data set” (2004)
Where a name gives a salt, the structure may show the parent alone. Activity calls are given as the source filed them.

Legend:
[1] = molecular target: T1, Corticotropin-releasing factor receptor 2/Corticotropin-releasing factor-binding protein (Homo sapiens, UniProt P24387+Q13324); test: activators of CRF receptor 2 with binding protein – uHTS hits, confirmation (AID 602473); assay type: functional; settings: read-out: EC50_Mean
T1 sequence (Q13324 whole entry): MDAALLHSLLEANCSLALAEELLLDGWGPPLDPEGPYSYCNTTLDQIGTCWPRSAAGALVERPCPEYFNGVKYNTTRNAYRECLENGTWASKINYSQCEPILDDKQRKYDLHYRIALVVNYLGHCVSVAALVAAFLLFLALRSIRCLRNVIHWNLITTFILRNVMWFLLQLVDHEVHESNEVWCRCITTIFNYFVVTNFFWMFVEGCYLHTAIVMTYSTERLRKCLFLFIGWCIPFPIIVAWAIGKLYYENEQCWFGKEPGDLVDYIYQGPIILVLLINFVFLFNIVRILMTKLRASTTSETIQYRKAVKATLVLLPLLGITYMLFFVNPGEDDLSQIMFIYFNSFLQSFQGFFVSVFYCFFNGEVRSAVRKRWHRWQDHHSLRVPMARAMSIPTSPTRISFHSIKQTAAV
T1 sequence (P24387 whole entry): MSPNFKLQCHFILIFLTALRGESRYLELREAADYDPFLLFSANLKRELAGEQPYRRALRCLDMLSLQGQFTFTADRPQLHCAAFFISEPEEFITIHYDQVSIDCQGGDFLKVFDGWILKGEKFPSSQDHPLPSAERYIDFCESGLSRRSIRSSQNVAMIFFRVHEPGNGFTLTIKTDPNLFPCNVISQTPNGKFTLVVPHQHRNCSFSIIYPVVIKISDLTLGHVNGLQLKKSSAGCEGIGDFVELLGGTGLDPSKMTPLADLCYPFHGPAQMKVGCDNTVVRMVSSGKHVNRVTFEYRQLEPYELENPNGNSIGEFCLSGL

[2] = molecular target: T1, Corticotropin-releasing factor receptor 2/Corticotropin-releasing factor-binding protein; test: Dose Response confirmation of uHTS hits for small molecule antagonists of the CRF-binding protein and CRF-R2 receptor complex.; assay type: functional; settings: read-out: IC50_Mean
[3] = molecular target: Voltage-gated inwardly rectifying potassium channel KCNH2 (Homo sapiens, UniProt Q12809); settings: Potency;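 further: confirmatory quantitative high-throughput screen measuring inhibition of hERG channel activity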
[4] = molecular target: Dual specificity protein kinase CLK1 (Homo sapiens, UniProt P49759); test: CLK1 kinase inhibitors, off-target check, dose response, selectivity assay for Dyrk1A inhibitor project, biochemical, cherry-picked samples (AID 588811)
[5] = molecular target: T2, Mannose-6-phosphate isomerase (Homo sapiens, UniProt P34949); test: PMI enzyme inhibitors, confirmation, biochemical, fluorescence intensity (AID 1535)
T2 sequence (P34949 whole entry): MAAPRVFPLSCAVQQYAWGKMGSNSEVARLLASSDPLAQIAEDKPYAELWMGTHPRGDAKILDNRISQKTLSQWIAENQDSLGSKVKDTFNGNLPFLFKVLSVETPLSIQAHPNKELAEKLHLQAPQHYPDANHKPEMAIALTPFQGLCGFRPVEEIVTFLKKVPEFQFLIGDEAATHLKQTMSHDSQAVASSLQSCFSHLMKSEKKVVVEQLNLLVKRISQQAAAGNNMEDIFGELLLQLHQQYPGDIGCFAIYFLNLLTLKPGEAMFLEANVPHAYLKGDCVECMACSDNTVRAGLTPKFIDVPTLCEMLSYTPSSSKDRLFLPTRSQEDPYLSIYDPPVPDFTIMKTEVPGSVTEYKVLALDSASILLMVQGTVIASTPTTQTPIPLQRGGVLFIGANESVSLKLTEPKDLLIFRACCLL

[6] = molecular target: UDP-galactopyranose mutase (Mycobacterium tuberculosis, UniProt P9WIQ1); test: Inhibitors of Mycobacterium tuberculosis UDP-galactopyranose mutase (UGM) enzyme Measured in Biochemical System Using Plate Reader - 2105-02_Inhibitor_Dose_CherryPick_Activity. [Related pubchem assays (depositor defined):AID504439]
[7] = molecular target: Dual specificity protein phosphatase 6 (Rattus norvegicus, UniProt Q64346); assay type: functional;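 further: confirmatory in vitro dose-response testing of MKP-3 inhibition; recombinant His-tagged MKP-3 made in E. coli BL21 with OMFP substrate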
[8] = molecular target: Tyrosine-protein phosphatase non-receptor type 7 (Homo sapiens, UniProt P35236); test: redox-dependent HePTP inhibition, mechanism study, biochemical, fluorescence (AID 2068); assay type: functional
HEK293 [9] = test: cells; assay type: functional, cell-based; settings: Homo sapiens
[10] = molecular target: T3, Heat shock factor protein 1 (Mus musculus, UniProt P38532); test: inhibition of MG132-induced HSE-luciferase signal, confirmation, cell-based, NIH3T3, luminescence, dose retest (AID 2382); assay type: functional;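 further: NIH3T3 fibroblasts with HSF1-driven luciferase reporter stressed by proteasome inhibitor MG132; luminescence from HSF1-driven luciferase expression after 8 hours of MG132 stress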
T3 sequence (P38532 whole entry): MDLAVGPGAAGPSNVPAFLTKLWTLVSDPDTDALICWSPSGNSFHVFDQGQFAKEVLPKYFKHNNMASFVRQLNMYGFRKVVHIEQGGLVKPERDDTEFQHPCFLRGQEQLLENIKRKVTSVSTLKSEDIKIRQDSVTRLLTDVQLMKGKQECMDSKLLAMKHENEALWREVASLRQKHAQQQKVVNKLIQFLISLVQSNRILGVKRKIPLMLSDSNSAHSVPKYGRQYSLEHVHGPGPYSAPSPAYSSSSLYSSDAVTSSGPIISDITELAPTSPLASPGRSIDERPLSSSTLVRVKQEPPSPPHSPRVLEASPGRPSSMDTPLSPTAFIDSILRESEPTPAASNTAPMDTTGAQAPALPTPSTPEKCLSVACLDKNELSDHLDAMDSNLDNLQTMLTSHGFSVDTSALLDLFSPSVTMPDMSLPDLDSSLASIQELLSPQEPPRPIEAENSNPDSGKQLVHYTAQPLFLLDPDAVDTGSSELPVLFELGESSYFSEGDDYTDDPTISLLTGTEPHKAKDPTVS

HEK293 [11] = test: cells; assay type: functional, cell-based; settings: Homo sapiens; remark: listed apart in the source
HEK293 [12] = test: cells; assay type: functional, cell-based; settings: Homo sapiens; remark: listed apart in the source
HEK293 [13] = test: NOD2 signaling inhibitors in MDP-stimulated cells, cell-based, uHTS, luminescence (AID 2001); assay type: functional; settings: Homo sapiens
[14] = molecular target: Nucleotide-binding oligomerization domain-containing protein 2 (Homo sapiens, UniProt Q9HC29); test: NOD2 signaling inhibitors, cell-based, luminescence, uHTS, HEK293 (AID 1566); assay type: functional
[15] = molecular target: T4, Microphthalmia-associated transcription factor (Homo sapiens, UniProt O75030); test: TRPM1 promoter luciferase signal decrease, dose response, MITF inhibitor project, cell-based, SK-MEL-5, cherry-picked, set 3 (AID 493073); assay type: functional
T4 sequence (O75030 whole entry): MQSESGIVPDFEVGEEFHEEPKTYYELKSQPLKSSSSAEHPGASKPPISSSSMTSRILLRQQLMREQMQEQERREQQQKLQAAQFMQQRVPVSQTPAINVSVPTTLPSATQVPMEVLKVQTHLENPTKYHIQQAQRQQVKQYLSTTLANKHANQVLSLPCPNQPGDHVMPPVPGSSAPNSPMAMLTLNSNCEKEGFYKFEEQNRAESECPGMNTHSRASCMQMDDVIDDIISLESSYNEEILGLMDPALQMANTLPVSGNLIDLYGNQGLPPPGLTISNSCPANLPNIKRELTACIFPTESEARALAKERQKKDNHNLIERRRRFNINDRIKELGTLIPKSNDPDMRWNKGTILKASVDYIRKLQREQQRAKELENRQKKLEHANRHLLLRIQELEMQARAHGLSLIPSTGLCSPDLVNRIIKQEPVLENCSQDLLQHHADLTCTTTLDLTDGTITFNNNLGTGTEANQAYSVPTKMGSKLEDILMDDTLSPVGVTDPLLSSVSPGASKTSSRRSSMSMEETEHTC

HEK293 [16] = test: NOD1 signaling inhibitors, primary screen, cell-based, luminescence, uHTS (AID 1578); assay type: functional; settings: Homo sapiens
[17] = molecular target: FAD-linked sulfhydryl oxidase ALR (Homo sapiens, UniProt P55789); test: inhibitors of human ALR sulfhydryl oxidase, dose response, biochemical, H2O2 detection, luminescence, cherry-pick (AID 493248)
[18] = growth induction of Burl-1 ts yeast mutant, dose response, counter-screen for SUMOylation pathway inhibitor project, whole organism, S. cerevisiae, luminescence (AID 463199); assay type: functional
CAAX prenyl protease 2 [19] = molecular target: CAAX prenyl protease 2 (Homo sapiens, UniProt Q9Y256); test: human Rce1 protease inhibitors, dose response, biochemical, yeast membranes, quenched-peptide fluorescence, cherry-pick (AID 588849)
Trypsin = Trypsin (Sus scrofa, UniProt P00761); test: porcine trypsin inhibitors, dose response, selectivity assay for Rce1 protease inhibitor project, biochemical, quenched peptide fluorescence, cherry-pick (AID 488789)
CAAX prenyl protease 2 [20] = molecular target: CAAX prenyl protease 2 (Saccharomyces cerevisiae S288c, UniProt Q03530); assay type: biochemical
[21] = molecular target: T5, Serine/threonine-protein phosphatase (Candida dubliniensis (strain CD36 / CBS 7987 / NCPF 3949 / NRRLY-17841) (Yeast), UniProt B9W6M3); test: Fluorescence Cell-Based Secondary Assay to Identify Inhibitors of Calcineurin. [Related pubchem assays (depositor defined):AID1979, AID2007]; assay type: functional
T5 sequence (B9W6M3 whole entry): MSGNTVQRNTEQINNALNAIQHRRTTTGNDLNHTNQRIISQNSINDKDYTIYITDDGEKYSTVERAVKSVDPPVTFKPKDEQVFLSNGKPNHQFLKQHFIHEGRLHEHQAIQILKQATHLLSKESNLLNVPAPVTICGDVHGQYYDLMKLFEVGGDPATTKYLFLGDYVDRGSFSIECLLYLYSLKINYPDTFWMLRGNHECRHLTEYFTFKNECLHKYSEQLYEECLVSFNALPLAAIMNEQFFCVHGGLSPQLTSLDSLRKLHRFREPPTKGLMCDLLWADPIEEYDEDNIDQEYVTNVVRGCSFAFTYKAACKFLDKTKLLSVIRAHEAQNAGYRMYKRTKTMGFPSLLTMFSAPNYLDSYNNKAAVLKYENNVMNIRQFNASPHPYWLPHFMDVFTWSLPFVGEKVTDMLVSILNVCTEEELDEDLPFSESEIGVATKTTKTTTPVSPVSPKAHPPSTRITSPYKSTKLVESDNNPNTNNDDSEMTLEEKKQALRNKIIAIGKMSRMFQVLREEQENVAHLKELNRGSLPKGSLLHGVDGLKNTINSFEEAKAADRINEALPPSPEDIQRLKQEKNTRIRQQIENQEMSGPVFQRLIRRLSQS

[22] = molecular target: Nuclear receptor subfamily 0 group B member 1 (Homo sapiens, UniProt P51843); test: Luminescence-based cell-based high throughput dose response assay for inhibitors of the orphan nuclear receptor subfamily 0, group B, member 1 (DAX1; NR0B1). [Related pubchem assays (depositor defined):AID504766, AID504790]; assay type: functional
HEK293 [23] = test: cells; assay type: functional, cell-based; settings: Homo sapiens; remark: listed apart in the source
[24] = molecular target: Glucose-6-phosphate 1-dehydrogenase (Homo sapiens, UniProt P11413); test: human G6PD enzyme inhibitors, dose response, selectivity assay for P. falciparum G6PD inhibitor project, biochemical, fluorescence (AID 504792); assay type: functional
Genome polyprotein = Genome polyprotein (dengue virus type 2, UniProt P29990); test: Dengue-2 NS5 methyltransferase inhibitors, primary screen, biochemical, confirmation dose response (AID 588689); assay type: functional
Vero = Vero cell cytotoxicity, cytotoxicity control for flavivirus capping enzyme inhibitors (AID 588742); assay type: functional; settings: Chlorocebus sabaeus
[25] = growth suppression of PTEN-null colon cells, dose response, cell-based, HCT116 PTEN knockout (AID 1047); assay type: functional;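 further: HCT116 colon tumor cells with PTEN knocked out; cells exposed to compound for 60 hours before readout; potency for loss of cell viability measured by luminescence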
[26] = growth suppression of beta-catenin-knockout colon cells, dose response, cell-based, HCT116, human colon tumor (AID 1045); assay type: functional;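 further: HCT116 colon tumor cells with beta catenin knocked out; cells exposed to compound for 60 hours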
[27] = NIH-3T3 fibroblast cytotoxicity, dose response, cytotoxicity control, cell-based, fluorescence, Alamar Blue, secondary assay (AID 2327); assay type: functional;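 further: NIH-3T3 mouse fibroblasts cultured with fluconazole at 8 µg/mL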
A-375 = test: MITF: Counter assay: A375 proliferation Measured in Cell-Based System Using Plate Reader - 2084-03_Inhibitor_Dose_DryPowder_Activity. [Related pubchem assays (depositor defined):AID488944]; assay type: functional; settings: Homo sapiens
[28] = C. albicans growth with fluconazole, confirmation, fluorescence, retest (AID 2467); assay type: functional, cell-based

Voltage-gated inwardly rectifying potassium channel KCNH2, sequence (Q12809 whole entry): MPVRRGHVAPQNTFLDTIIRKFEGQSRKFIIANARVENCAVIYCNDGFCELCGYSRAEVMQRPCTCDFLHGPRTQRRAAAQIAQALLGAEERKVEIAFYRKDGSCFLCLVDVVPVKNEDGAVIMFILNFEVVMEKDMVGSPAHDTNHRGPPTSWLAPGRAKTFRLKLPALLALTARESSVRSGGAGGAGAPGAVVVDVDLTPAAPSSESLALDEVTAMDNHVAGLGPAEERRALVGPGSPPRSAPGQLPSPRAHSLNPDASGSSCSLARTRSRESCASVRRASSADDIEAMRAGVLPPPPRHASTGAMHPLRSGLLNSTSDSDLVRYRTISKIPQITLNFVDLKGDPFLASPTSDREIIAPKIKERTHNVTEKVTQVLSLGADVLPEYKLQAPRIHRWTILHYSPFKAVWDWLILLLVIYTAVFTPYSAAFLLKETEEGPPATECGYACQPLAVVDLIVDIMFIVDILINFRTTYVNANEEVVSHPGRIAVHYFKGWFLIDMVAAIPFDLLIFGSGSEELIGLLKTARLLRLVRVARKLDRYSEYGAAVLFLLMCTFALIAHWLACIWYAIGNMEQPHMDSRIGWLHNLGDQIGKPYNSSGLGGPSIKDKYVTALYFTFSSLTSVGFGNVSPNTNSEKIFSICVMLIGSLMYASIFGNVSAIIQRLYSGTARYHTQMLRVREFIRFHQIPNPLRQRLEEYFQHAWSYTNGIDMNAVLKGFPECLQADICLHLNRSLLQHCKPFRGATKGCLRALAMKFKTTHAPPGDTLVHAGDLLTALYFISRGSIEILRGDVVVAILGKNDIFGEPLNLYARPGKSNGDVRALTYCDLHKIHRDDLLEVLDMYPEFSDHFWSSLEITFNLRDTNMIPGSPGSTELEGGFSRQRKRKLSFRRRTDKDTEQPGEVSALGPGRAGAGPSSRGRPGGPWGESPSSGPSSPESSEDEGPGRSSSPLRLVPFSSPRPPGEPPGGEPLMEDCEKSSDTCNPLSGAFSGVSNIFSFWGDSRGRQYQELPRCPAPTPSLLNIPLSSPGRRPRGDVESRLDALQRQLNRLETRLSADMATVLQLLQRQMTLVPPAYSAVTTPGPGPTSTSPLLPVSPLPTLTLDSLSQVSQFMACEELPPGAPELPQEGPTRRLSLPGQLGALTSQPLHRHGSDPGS
Trypsin, sequence (P00761 whole entry): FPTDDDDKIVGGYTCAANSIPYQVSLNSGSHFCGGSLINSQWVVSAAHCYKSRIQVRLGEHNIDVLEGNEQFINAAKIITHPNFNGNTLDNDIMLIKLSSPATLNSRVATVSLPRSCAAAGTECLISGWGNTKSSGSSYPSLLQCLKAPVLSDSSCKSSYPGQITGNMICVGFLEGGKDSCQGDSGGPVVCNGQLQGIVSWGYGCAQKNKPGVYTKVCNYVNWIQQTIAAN
Glucose-6-phosphate 1-dehydrogenase, sequence (P11413 whole entry): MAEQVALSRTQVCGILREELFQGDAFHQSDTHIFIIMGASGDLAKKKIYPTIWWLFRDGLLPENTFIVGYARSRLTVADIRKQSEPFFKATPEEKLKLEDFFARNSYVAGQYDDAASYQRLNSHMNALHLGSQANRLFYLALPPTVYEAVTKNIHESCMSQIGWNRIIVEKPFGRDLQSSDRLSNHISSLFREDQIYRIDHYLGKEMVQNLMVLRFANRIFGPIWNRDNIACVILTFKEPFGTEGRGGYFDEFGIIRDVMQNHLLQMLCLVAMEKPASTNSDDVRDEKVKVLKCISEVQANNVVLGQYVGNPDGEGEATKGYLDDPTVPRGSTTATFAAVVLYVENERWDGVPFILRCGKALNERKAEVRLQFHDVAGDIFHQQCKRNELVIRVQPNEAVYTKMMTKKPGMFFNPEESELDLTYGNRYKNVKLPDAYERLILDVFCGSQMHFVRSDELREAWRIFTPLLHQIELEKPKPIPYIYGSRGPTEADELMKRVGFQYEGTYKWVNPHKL
Nuclear receptor subfamily 0 group B member 1, sequence (P51843 whole entry): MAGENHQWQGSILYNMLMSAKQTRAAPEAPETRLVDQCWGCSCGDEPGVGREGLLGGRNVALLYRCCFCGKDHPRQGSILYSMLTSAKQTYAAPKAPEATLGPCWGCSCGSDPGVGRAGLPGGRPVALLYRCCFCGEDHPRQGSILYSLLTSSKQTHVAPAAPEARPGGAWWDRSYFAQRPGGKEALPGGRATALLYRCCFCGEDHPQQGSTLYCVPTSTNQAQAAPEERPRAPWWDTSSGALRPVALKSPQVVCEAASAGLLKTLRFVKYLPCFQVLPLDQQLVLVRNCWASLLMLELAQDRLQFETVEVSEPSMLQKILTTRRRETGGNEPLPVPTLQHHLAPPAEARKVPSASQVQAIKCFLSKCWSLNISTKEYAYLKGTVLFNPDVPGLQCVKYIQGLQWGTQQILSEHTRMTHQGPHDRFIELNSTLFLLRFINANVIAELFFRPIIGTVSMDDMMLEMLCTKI
Nucleotide-binding oligomerization domain-containing protein 2, sequence (Q9HC29 whole entry, the tested form may be a part): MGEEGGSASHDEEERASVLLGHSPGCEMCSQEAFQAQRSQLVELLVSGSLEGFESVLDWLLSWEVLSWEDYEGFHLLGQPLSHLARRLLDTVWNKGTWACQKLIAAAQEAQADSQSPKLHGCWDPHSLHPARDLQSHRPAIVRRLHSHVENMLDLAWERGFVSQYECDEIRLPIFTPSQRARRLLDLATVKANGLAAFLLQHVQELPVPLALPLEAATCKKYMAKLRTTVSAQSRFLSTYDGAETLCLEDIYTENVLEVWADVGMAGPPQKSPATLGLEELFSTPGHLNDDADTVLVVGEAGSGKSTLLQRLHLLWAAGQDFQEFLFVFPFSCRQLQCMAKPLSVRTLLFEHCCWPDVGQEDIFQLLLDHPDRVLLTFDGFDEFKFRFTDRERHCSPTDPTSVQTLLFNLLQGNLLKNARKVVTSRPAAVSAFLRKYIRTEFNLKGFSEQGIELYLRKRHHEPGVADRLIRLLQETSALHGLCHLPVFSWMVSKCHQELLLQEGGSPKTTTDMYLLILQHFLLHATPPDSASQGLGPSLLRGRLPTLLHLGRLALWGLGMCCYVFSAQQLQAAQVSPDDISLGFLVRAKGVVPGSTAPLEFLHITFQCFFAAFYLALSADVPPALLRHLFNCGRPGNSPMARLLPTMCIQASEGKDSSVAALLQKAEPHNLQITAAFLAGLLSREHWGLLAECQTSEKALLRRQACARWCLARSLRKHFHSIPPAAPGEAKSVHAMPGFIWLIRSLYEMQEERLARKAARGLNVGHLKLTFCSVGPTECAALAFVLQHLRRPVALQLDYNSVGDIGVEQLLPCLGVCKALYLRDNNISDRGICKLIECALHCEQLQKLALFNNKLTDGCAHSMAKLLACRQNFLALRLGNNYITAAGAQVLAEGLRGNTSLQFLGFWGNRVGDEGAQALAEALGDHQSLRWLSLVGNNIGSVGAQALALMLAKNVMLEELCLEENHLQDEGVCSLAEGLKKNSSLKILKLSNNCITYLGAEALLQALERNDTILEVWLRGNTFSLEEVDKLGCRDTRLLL
CAAX prenyl protease 2 (Homo sapiens, UniProt Q9Y256), sequence (Q9Y256 whole entry): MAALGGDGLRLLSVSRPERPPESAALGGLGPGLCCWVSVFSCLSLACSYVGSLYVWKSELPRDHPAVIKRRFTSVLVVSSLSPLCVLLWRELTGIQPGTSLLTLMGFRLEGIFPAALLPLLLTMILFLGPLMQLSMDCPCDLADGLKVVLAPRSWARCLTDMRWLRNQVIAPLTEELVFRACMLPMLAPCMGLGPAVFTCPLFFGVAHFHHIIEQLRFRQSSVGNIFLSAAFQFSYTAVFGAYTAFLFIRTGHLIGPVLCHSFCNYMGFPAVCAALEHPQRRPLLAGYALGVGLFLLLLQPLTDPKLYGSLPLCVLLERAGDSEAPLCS
Dual specificity protein kinase CLK1, sequence (P49759 whole entry): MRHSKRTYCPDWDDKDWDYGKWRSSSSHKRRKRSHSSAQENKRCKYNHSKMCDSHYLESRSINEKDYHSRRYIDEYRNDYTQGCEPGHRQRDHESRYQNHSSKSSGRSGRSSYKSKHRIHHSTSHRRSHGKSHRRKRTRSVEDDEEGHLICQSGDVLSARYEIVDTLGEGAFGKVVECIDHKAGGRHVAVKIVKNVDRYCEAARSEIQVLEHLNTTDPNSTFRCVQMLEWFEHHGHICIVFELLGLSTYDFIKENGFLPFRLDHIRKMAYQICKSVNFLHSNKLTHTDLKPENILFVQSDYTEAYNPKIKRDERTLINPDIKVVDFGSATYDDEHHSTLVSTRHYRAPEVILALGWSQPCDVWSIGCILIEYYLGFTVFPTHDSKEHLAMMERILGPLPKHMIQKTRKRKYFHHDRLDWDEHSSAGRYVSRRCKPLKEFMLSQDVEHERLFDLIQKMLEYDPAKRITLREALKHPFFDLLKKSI
Dual specificity protein phosphatase 6, sequence (Q64346 whole entry): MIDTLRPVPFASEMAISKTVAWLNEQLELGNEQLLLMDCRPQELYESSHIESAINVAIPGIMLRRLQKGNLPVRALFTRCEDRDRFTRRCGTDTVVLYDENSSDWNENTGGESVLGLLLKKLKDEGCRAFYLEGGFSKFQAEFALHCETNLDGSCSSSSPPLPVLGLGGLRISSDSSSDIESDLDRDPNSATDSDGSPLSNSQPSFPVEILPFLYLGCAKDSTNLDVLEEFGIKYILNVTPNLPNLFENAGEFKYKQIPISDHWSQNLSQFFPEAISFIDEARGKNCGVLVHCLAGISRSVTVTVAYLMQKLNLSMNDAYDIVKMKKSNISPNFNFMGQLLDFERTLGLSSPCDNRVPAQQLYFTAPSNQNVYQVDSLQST
CAAX prenyl protease 2 (Saccharomyces cerevisiae S288c, UniProt Q03530), sequence (Q03530 whole entry): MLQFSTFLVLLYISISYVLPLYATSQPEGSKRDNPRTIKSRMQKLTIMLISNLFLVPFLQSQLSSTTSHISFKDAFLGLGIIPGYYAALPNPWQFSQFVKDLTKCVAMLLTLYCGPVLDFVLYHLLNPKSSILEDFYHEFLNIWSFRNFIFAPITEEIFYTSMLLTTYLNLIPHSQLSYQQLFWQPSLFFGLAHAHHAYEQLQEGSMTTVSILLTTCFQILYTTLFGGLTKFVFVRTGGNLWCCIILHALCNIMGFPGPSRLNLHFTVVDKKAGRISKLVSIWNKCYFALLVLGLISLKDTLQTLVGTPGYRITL

SMILES: c1ccc(C2CN3CCSC3=N2)cc1 (configuration not stated) [TETRAMISOLE HYDROCHLORIDE]
- EC50 [1]: > 53 µM (inactive)
- IC50 [2]: > 47.1 µM (inactive)
- AC50 [3]: 35.5 µM (inconclusive)

SMILES: CCN(Cc1cccs1)c1ncnc2ccc(-c3ccc4c(c3)OCO4)cc12
- AC50 [4]: < 0.00195 µM (active)

SMILES: O=c1c2cc(F)ccc2sn1-c1ccccc1F
- IC50 [5]: 5.3 µM (active)

SMILES: O=C(NCC1CCCO1)c1cccc2c1C(=O)c1ccc(N3CCC(Cc4ccccc4)CC3)cc1S2(=O)=O (configuration not stated)
- AC50 [6]: 52.6 µM (active)

SMILES: CCN(CC)C(=S)c1ccc(O)c(OC)c1
- IC50 [7]: > 100 µM (inactive)
- IC50 [8]: 4.42 µM (active)

SMILES: O=C(CCl)Nc1ccc(Sc2ccc(NC(=O)CCl)cc2)cc1
- IC50 (HEK293 [9]): 10.2 µM (active)
- EC50 [10]: 3.68 µM (active)
- IC50 (HEK293 [11]): > 20 µM (inactive)
- IC50 (HEK293 [12]): 1.62 µM (active)
- IC50 (HEK293 [13]): 2.71 µM (active)
- EC50 [14]: 18.8 µM (active)
- AC50 [15]: 5.98 µM (active)
- EC50 (HEK293 [16]): 10.1 µM (active)

SMILES: O=C(O)CCc1ccc(-c2cccs2)n1NC(=O)c1cccs1
- AC50 [17]: 1.55 µM (active)
- AC50 [18]: 183 µM (active)

SMILES: COC(=O)C1=CNC=C(C(=O)OC)C1c1cccc2ccccc12
- AC50 (CAAX prenyl protease 2 [19]): 7.98 µM (active)
- AC50 (Trypsin): 80.3 µM (active)
- AC50 (CAAX prenyl protease 2 [20]): 26.9 µM (active)

SMILES: O=C1/C(=C\c2ccccc2)CCc2c1[nH]c1ccccc21
- EC50 [21]: > 285 µM (inactive)

SMILES: FC(F)(F)c1nnc2ccc(NCc3cccnc3)nn12
- IC50 [22]: > 67.5 µM (inactive)
- IC50 (HEK293 [23]): 50.4 µM (inactive)

SMILES: COc1cc(CN2CCCC(C(=O)c3ccc4c5c(cccc35)CC4)C2)cc(OC)c1O (configuration not stated)
- IC50 [24]: 24.3 µM (inactive)
- IC50 (Genome polyprotein): 97.7 µM (active)
- CC50 (Vero): > 40 µM (active)

SMILES: CCOc1cc(/C=N/N=C(N)N)ccc1OCc1ccc(Cl)cc1
- EC50 [25]: 3.92 µM (active)
- EC50 [26]: 3.01 µM (active)
- EC50 [27]: 81.2 µM (active)
- AC50 (A-375): 18 µM (active)
- EC50 [28]: > 38 µM (not active)
